Measured values published in US8263606B2 (Xenon Pharmaceuticals Inc., priority 2008, dated 2012).
Where a name gives a salt, the structure may show the parent alone.

Experiments:
[1] = system: sodium channel; assay: Guanidine influx assay (14C-guanidine radiotracer flux, in vitro); format: cell-based, human or rat; conditions: guanidine influx assay using a known cell line that expresses a sodium channel
In short: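 Cells (human/rat Nav, endogenous or recombinant), ~100,000/well, 20-24 h 37 °C/5% CO2. Wash LNHBSS (150 mM choline Cl, HEPES, glucose). Add cpd + aconitine/14C-guanidine mix, RT. Wash, dry, scintillation count. IC50: 4-PL fit; selectivity as IC50 ratio vs reference channel, e.g. Nav1.5.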

[2] = biological target: CYP3A4 (Homo sapiens, UniProt P08684); assay: Cytochrome P450 (CYP450) Inhibition Assay, CYP3A4 (Vivid fluorescence, BOMCC substrate); conditions: human, P450 Baculosomes (recombinant CYP3A4), probe BOMCC (Vivid substrate)
CYP3A4, sequence (P08684 whole entry): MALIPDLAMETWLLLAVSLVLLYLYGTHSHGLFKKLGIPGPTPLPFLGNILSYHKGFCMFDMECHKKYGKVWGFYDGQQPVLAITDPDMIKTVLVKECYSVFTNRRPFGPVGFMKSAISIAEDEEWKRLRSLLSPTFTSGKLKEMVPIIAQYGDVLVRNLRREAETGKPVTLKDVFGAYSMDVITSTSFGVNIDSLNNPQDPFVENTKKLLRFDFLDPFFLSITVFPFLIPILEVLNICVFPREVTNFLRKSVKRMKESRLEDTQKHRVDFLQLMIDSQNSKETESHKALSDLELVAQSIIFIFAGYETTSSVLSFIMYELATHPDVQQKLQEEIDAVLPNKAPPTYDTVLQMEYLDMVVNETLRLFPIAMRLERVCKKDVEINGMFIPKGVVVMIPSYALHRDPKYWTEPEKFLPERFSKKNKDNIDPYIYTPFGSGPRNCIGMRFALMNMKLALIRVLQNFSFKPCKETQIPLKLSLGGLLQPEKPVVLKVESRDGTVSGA

For `COCCOCCN1C(=O)C2(COc3ccc(OCCOC)cc32)c2ccccc21` (centres unmarked) [Example 9.76, 5-(2-methoxyethoxy)-1′-[2-(2-methoxyethoxy)ethyl]spiro[1-benzofuran-3,3′-indol]-2′(1′H)-one], the IC50 [1] was 100 to 1000 nM and the inhibition at 10 µM [2] was less than 50%.

Molecule `O=C1N(Cc2ccc(C(F)(F)F)o2)c2ccccc2C12COc1cc(Br)ccc12` (centres unmarked) [Example 2.22, 6-bromo-1′-((5-(trifluoromethyl)furan-2-yl)methyl)-2H-spiro[benzofuran-3,3′-indolin]-2′-one] has an IC50 ([1]; activity level class) of 1000 to 10000 nM and an inhibition at 10 µM [2] greater than 50%.

With `CCN1CCC(CN2C(=O)C3(COc4cc5c(cc43)CCO5)c3ccccc32)CC1` (centres unmarked) [Example 11.8, 1-[(1-ethylpiperidin-4-yl)methyl]-5,6-dihydrospiro[benzo[1,2-b:5,4-b′]difuran-3,3′-indol]-2′(1′H)-one] the IC50 [1] was 1000 to 10000 nM and the inhibition at 10 µM [2] was greater than 50%.

Molecule `O=C1N(Cc2ccc(N3CCOCC3)cc2)c2ccccc2C12COc1cc3c(cc12)CCO3` (centres unmarked) [Example 11.46, t-(4-morpholin-4-ylbenzyl)-5,6-dihydrospiro[benzo[1,2-b:5,4-b′]difuran-3,3′-indol]-2′(1′H)-one] has an IC50 [1] of 100 to 1000 nM and an inhibition at 10 µM [2] greater than 50%.

With `CN(C)S(=O)(=O)c1cccc(CN2C(=O)C3(COc4cc5c(cc43)OCCO5)c3ccccc32)c1` (centres unmarked) [Example 7.16, N,N-dimethyl-3-[(2′-oxo-2,3-dihydrospiro[furo[2,3-g][1,4]benzodioxine-8,3′-indol]-1′-(2′H)-yl)methyl]benzenesulfonamide] the IC50 ([1]; activity level class) was 1000 to 10000 nM and the inhibition at 10 µM [2] was greater than 50%.

With `Nc1cccnc1CN1C(=O)C2(COc3cc4c(cc32)OCCO4)c2ccccc21` (centres unmarked) [Example 11.97, 1′-[(3-aminopyridin-2-yl)methyl]-2,3-dihydrospiro[furo[2,3-g][1,4]benzodioxine-8,3′-indol]-2′(1′H)-one hydrobromide] the IC50 [1] was 1 to 100 nM and the inhibition at 10 µM [2] was greater than 50%.

`O=C(Nc1ccccc1)c1ccc(CN2C(=O)C3(COc4cc5c(cc43)CCO5)c3ccccc32)cc1` (centres unmarked) [Example 12.27, 4-[(2′-oxo-5,6-dihydrospiro[benzo[1,2-b:5,4-b′]difuran-3,3′-indol]-1′(2′H)-yl)methyl]-N-phenylbenzamide] gave an IC50 [1] of 100 to 1000 nM and an inhibition at 10 µM [2] of less than 50%.

Work on `O=C1N(Cc2ccc(C(F)(F)F)o2)c2ccccc2C12COc1ccc(Br)cc12` (centres unmarked) [Example 2.23, 5-bromo-1′-((5-(trifluoromethyl)furan-2-yl)methyl)-2H-spiro[benzofuran-3,3′-indolin]-2′-one] yielded an IC50 ([1]; activity level class) of 100 to 1000 nM and an inhibition at 10 µM [2] greater than 50%.

Molecule `O=C1N(Cc2ncccc2C(F)(F)F)c2cccc(F)c2C12COc1cc3c(cc12)OCCO3` (centres unmarked) [Example 5.20, 4′-fluoro-1′-{[3-(trifluoromethyl)pyridin-2-yl]methyl}-2,3-dihydrospiro[furo[2,3-g][1,4]benzodioxine-8,3′-indol]-2′(1′H)-one] has an IC50 ([1]; activity level class) of 1 to 100 nM and an inhibition at 10 µM [2] of less than 50%.

For `O=C(NCCc1cccs1)c1ccc(CN2C(=O)C3(COc4cc5c(cc43)CCO5)c3ccccc32)cc1` (centres unmarked) [Example 12.30, 4-[(2′-oxo-5,6-dihydrospiro[benzo[1,2-b:5,4-b′]difuran-3,3′-indol]-1′(2′H)-yl)methyl]-N-(2-thiophen-2-ylethyl)benzamide], the IC50 [1] was 100 to 1000 nM and the inhibition at 10 µM [2] was greater than 50%.

For `COCCOCCN1C(=O)[C@@]2(COc3cc4c(cc32)OCCO4)c2ccccc21` [Example 9.70, (8S)-1′-[2-(2-methoxyethoxy)ethyl]-2,3-dihydrospiro[furo[2,3-g][1,4]benzodioxine-8,3′-indol]-2′(1′H)-one], the IC50 [1] was 1 to 100 nM and the inhibition at 10 µM [2] was less than 50%.

`O=C1N(Cc2ccc(C(F)(F)F)nc2)c2ccccc2C12COc1cc3c(cc12)OCCO3` (centres unmarked) [Example 4.98, 1-{[6-(trifluoromethyl)pyridin-3-yl]methyl}-2,3-dihydrospiro[furo[2,3-g][1,4]benzodioxine-8,3′-indol]-2′(1′H)-one] showed an IC50 ([1]; activity level class) of 1 to 100 nM and an inhibition at 10 µM [2] greater than 50%.

`O=C1N(Cc2cc(-c3cccnc3)no2)c2ccccc2C12COc1cc3c(cc12)OCCO3` (centres unmarked) [Example 7.14] showed an IC50 ([1]; activity level class) of 1 to 100 nM and an inhibition at 10 µM [2] greater than 50%.

Molecule `O=C1N(CC2CCNC2)c2ccccc2C12COc1cc3c(cc12)CCO3` (centres unmarked) [Example 11.61, 1′-(pyrrolidin-3-ylmethyl)-5,6-dihydrospiro[benzo[1,2-b:5,4-b′]difuran-3,3′-indol]-2′(1′H)-one] has an IC50 [1] of 1000 to 10000 nM and an inhibition at 10 µM [2] of less than 50%.

`O=C1N(CC2CCNCC2)c2ccccc2C12COc1cc3c(cc12)OCCO3` (centres unmarked) [Example 11.99, 1-(piperidin-4-ylmethyl)-2,3-dihydrospiro[furo[2,3-g][1,4]benzodioxine-8,3′-indol]-2′(1′H)-one hydrochloride] showed an IC50 [1] of 1000 to 10000 nM and an inhibition at 10 µM [2] of less than 50%.

In the case of `COCCOc1ccc2c(c1)C1(CO2)C(=O)Nc2ccccc21` (centres unmarked) [Example 3.47, 5-(2-methoxyethoxy)spiro[1-benzofuran-3,3′-indol]-2′(1′H)-one], the IC50 ([1]; activity level class) is reported as 1000 to 10000 nM and the inhibition at 10 µM [2] is reported as less than 50%.

For `NCCNC(=O)c1cccnc1CN1C(=O)C2(COc3cc4c(cc32)OCCO4)c2ccccc21` (centres unmarked) [Example 12.64, N-(2-aminoethyl)-2-[(2′-oxo-2,3-dihydrospiro[furo[2,3-g][1,4]benzodioxine-8,3′-indol]-1′(2′H)-yl)methyl]pyridine-3-carboxamide dihydrochloride], the IC50 [1] was 100 to 1000 nM and the inhibition at 10 µM [2] was greater than 50%.

`COc1ccccc1NC(=O)c1ccc(CN2C(=O)C3(COc4cc5c(cc43)CCO5)c3ccccc32)cc1` (centres unmarked) [Example 12.25, N-(2-methoxyphenyl)-4-[(2′-oxo-5,6-dihydrospiro[benzo[1,2-b:5,4-b′]difuran-3,3′-indol]-1′(2′H)-yl)methyl]benzamide] was tested, and the IC50 [1] was 1000 to 10000 nM and the inhibition at 10 µM [2] was less than 50%.

`O=C1N(Cc2ccc(F)cc2)c2ccccc2C12COc1cc3c(cc12)OCCO3` (centres unmarked) [Example 7.21, 1′-(4-fluorobenzyl)-2,3-dihydrospiro[furo[2,3-g][1,4]benzodioxine-8,3′-indol]-2′(1′H)-one] was tested, and the IC50 ([1]; activity level class) was 1 to 100 nM and the inhibition at 10 µM [2] was greater than 50%.

Work on `O=C1N(CC2CCOCC2)c2ccccc2C12COc1cc(F)c(F)cc12` (centres unmarked) [Example 9.65, 5,6-difluoro-1′-(tetrahydro-2H-pyran-4-ylmethyl)spiro[1-benzofuran-3,3′-indol]-2′(1′H)-one] yielded an IC50 [1] of 1000 to 10000 nM and an inhibition at 10 µM [2] of less than 50%.

Work on `O=C1N(Cc2ccc(F)cc2)c2ccccc2C12COc1cc3c(cc12)CCO3` (centres unmarked) [Example 4.13, 1′-(4-fluorobenzyl)-5,6-dihydrospiro[benzo[1,2-b:5,4-b′]difuran-3,3′-indol]-2′(1′H)-one] yielded an IC50 ([1]; activity level class) of 1 to 100 nM and an inhibition at 10 µM [2] greater than 50%.

In the case of `CN1CCN(CN2C(=O)C3(COc4cc5c(cc43)OCO5)c3ccccc32)CC1` (centres unmarked) [Example 11.63, 1′-[(4-methylpiperazin-1-yl)methyl]spiro[furo[2,3-f][1,3]benzodioxole-7,3′-indol]-2′(1′H)-one hydrogen chloride], the IC50 [1] is reported as 1 to 100 nM and the inhibition at 10 µM [2] is reported as greater than 50%.

`O=C1N(CC2CCNCC2)c2ccccc2C12COc1cc3c(cc12)CCO3` (centres unmarked) [Example 11.5, 1-(piperidin-4-ylmethyl)-5,6-dihydrospiro[benzo[1,2-b:5,4-b′]difuran-3,3′-indol]-2′(1′H)-one] gave an IC50 [1] of 1000 to 10000 nM and an inhibition at 10 µM [2] of less than 50%.

Work on `O=C1N(Cc2ccc(C(F)(F)F)o2)c2cccc(Cl)c2C12COc1cc3c(cc12)OCO3` (centres unmarked) [Example 4.90, 4′-chloro-1′-{[5-(trifluoromethyl)-2-furyl]methyl}spiro[furo[2,3-f][1,3]benzodioxole-7,3′-indol]-2′(1′H)-one] yielded an IC50 ([1]; activity level class) of 1 to 100 nM and an inhibition at 10 µM [2] greater than 50%.

Molecule `COC(=O)c1ccccc1CN1C(=O)C2(COc3cc4c(cc32)CCO4)c2ccccc21` (centres unmarked) [Example 9.14, methyl 2-[(2′-oxo-5,6-dihydrospiro[benzo[1,2-b:5,4-b′]difuran-3,3′-indol]-1′(2′H)-yl)methyl]benzoate] has an IC50 ([1]; activity level class) of 1 to 100 nM and an inhibition at 10 µM [2] of less than 50%.

In the case of `CC(C)NC(=O)c1coc(CN2C(=O)C3(COc4cc5c(cc43)OCO5)c3ccccc32)n1` (centres unmarked) [Example 13.6, N-(1-methylethyl)-2-[(2′-oxospiro[furo[2,3-f][1,3]benzodioxole-7,3′-indol]-1′(2′H)-yl)methyl]-1,3-oxazole-4-carboxamide], the IC50 [1] is reported as 1 to 100 nM and the inhibition at 10 µM [2] is reported as greater than 50%.

Molecule `O=C1N(Cc2ccccn2)c2ccccc2C12COc1cc(F)c(F)cc12` (centres unmarked) [Example 9.64, 5,6-difluoro-1′-(pyridin-2-ylmethyl)spiro[1-benzofuran-3,3′-indol]-2′(1′H)-one] has an IC50 [1] of 100 to 1000 nM and an inhibition at 10 µM [2] of less than 50%.

Molecule `CC(C)N1CCC(CN2C(=O)C3(COc4cc5c(cc43)CCO5)c3ccccc32)CC1` (centres unmarked) [Example 11.6, 1′-{[1-(1-methylethyl)piperidin-4-yl]methyl}-5,6-dihydrospiro[benzo[1,2-b:5,4-b′]difuran-3,3′-indol]-2′(1′H)-one] has an IC50 [1] of 1000 to 10000 nM and an inhibition at 10 µM [2] greater than 50%.

In the case of `O=C(Nc1ccccc1F)c1ccc(CN2C(=O)C3(COc4cc5c(cc43)CCO5)c3ccccc32)cc1` (centres unmarked) [Example 12.29, N-(2-fluorophenyl)-4-[(2′-oxo-5,6-dihydrospiro[benzo[1,2-b:5,4-b′]difuran-3,3′-indol]-1′(2′H)-yl)methyl]benzamide], the IC50 [1] is reported as 100 to 1000 nM and the inhibition at 10 µM [2] is reported as less than 50%.

With `COc1cc2c(c(OC)c1)C1(COc3cc4c(cc31)OCCO4)C(=O)N2` (centres unmarked) [Example 3.50, 4′,6′-dimethoxy-2,3-dihydrospiro[furo[2,3-g][1,4]benzodioxine-8,3′-indol]-2′(1′H)-one] the IC50 ([1]; activity level class) was 1000 to 10000 nM and the inhibition at 10 µM [2] was less than 50%.

Molecule `O=C1N(Cc2ccccn2)c2ccccc2C12COc1cc3c(c(F)c12)OCCO3` (centres unmarked) [Example 5.25, 9-fluoro-1′-(pyridin-2-ylmethyl)-2,3-dihydro-spiro[furo[2,3-g][1,4]benzodioxine-8,3′-indol]-2′(1′H)-one] has an IC50 ([1]; activity level class) of 1 to 100 nM and an inhibition at 10 µM [2] greater than 50%.
